# Laboratory results as given in patent US10106834B2, “Methods of diagnosing and treating B cell acute lymphoblastic leukemia” (The General Hospital Corporation, priority 2013, dated 2018).
# Tested on: integrin α4β1 (VLA-4) on WT and IkE5Δ/Δ pre-B cells
# Test: Adhesion of adherent pre-B cells to fibronectin-coated plates with peptide blocking
# Type: cell-based, mouse
# Settings: 400 μg/ml peptide
# Method: Adhesion to Integrin Ligands and In Vitro FAK Inhibition Assay. Adhesion assay were performed in non-TC treated plates (BD). The plates were coated with 10 ug/ml fibronectin (FN), collagen (Col.) (Invitrogen) or BSA alone overnight at 4° C. After blocking the plates with 2% BSA for 1 h, equal number of cells were plated and incubated for the indicated time points. At the end of the assay, unbound and bound cells were harvested and enumerated. Percent adhesion was calculated by taking ratio of bound cells over total cells used in each assay.
# For peptide mediated blocking of adhesion^55, equal number of cells were pretreated for 45 minutes with either 400 μg/ml G-R-G-D-S-P (SEQ ID NO:1) or the control peptide G-R-G-E-S (SEQ ID NO:2) (American Peptide Company) and plated on FN-coated TC dishes. Cells were enumerated for calculation of percent adhesion and percent inhibition.
substance,measurement,value
G-R-G-D-S-P [RGD],binding of pre-B cells to fibronectin,significantly inhibited
